This is an account of results in US7312246B2, “Proteomimetic compounds and methods” (Yale University, priority 2001, dated 2007).

One may read the IC50 as the point on the concentration scale where inhibition reaches its midpoint. In general, Kd refers to the free concentration of one partner at which half of the binding sites on the other are occupied at equilibrium, for simple one-to-one binding.

The target in data set [1] is T1, calmodulin (CaM) (Homo sapiens, UniProt P0DP23). The data set is described as follows: Antagonism of CaM activation of phosphodiesterase (PDE), monitored by hydrolysis of mant-cGMP. Conditions: for IC50: 13.9 nM CaM, 50 mu/ml PDE, 8 μM mant-cGMP, pH 7.0, read-out: IC50, inhibition of CaM activation of PDE. Type of data set: biochemical.
Protocol: 13.9 nM CaM, 50 mu/ml PDE, 8 μM mant-cGMP, 10 mM Mops, 0.5 mM MgCl2, 90 mM KCl, 0.73 mM CaCl2, 0.2% DMSO, pH 7.0.
Data set [2] deals with T1, calmodulin (CaM). The data set is described as follows: Polyacrylamide gel permeation chromatography (6 kD cutoff) with and without CaM. Format: binding. Conditions: 70 μM in buffer.
The target of data set [3] is T2, gp41 core model (N36/C34 six helix bundle) (Human immunodeficiency virus type 1 group M subtype B, UniProt P04578).
T2 construct: two peptides (N36 and C34), from the N and C heptad repeat regions of gp41; purchased HHMI Biopolymer/Keck Foundation Biotechnology Resource Center, Yale University School of Medicine; host or cells: synthetic peptides
Type of data set: binding, HIV-1. Conditions: 10 μM gp41 core model, 50 mM PBS, 150 mM NaCl, pH 7.0, 4° C. An excerpt: Spectra were corrected by the subtraction of a blank corresponding to the solvent composition of each sample.

For data set [4], the target named is T1, calmodulin (CaM). Briefly: Avidin-based affinity resin derivatized with biotinylated CaM: retention of compound. Type of data set: binding. The text has this:
Discrete complex formation to CaM was indicated by the release of a from the column, as monitored by HPLC, on elution with […] biotin. […] To amplify the binding event between CaM and a, an enzymatic assay was also employed.

Data set [5] has as its target Bcl-xL (Homo sapiens, UniProt Q07817). The data set is described as follows: Fluorescence polarization assay: displacement of fluorescein-labeled 16-mer Bak-peptide from Bcl-xL. Type of data set: binding. Conditions: for binding affinity for Bcl-xL (in words): compared with m. The protocol: Based on these structural requirements we designed a series of terphenyl molecules (k-n) containing alkyl or aryl substituents on the three ortho positions (to mimic the key i, i+3, and i+7 groups in Bak or Bad) and carboxylic acid substituents on either end (to mimic the additional ion pair) (FIG. 17). The binding affinity of these molecules for Bcl-xL was assessed by a fluorescence polarization assay using fluoresceine-labeled 16-mer Bak-peptide. Displacement of this probe through competitive binding of the terphenyl into the hydrophobic cleft of BCl-xL would lead to a decrease in its fluorescence polarization which in turn could be related to the known affinity of the 16-mer Bak/Bcl-xL complex.
A general note: In fluorescence polarisation assays a small probe gives low polarisation when free and higher when bound to something large.

A short description of data set [6]: Solubility in buffer. Type of data set: physicochemical. Conditions: buffer with <1% DMSO. The text has this: For synthetic simplicity we changed the indole of Trp800 to phenyl and removed the hydroxyl of Thr803. Using Negishi couplings of differently substituted phenyltriflates, we prepared terphenyl a as a mimic of the calmodulin binding face of smMLCK.

Chain of Bcl-xL (Q07817 whole entry): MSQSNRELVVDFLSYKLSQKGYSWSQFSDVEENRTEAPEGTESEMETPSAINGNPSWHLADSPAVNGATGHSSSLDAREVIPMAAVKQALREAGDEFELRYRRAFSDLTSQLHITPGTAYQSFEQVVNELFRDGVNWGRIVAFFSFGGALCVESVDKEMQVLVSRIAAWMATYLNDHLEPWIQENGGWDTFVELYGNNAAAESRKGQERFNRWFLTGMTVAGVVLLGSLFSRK
T2 sequence (P04578 546-581): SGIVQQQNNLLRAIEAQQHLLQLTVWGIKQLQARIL

Consider `CCc1cc(-c2ccc(OCC(=O)O)cc2C(C)C)ccc1-c1cccc(Cc2cccc3ccccc23)c1` [b, (2′-Ethyl-2″-isopropyl-3-naphthalen-1-ylmethyl-[1,1′:4′,1″]terphenyl-4″-yloxy)-acetic acid], for which the IC50 in data set [1] was 9 nM. Besides, in data set [1] (relative to helical peptide RS20), the “potency, fold improvement over RS20” value is recorded as 8 fold.
Regarding `CC(C)Cc1cc(-c2ccc(-c3ccc(CCCN)cc3CC(C)C)cc2C(C)C)ccc1OCCN.Cl.Cl` [g, 3-[4″-(2-aminoethoxy)-2,3″-diisobutyl-3′-isopropyl-1,1′:4′,1″-terphenyl-4-yl]propan-1-amine dihydrochloride], in data set [2] (alone), the “behaviour on gel permeation column, compound alone” value is recorded as “retained on the column”. Further, in data set [2] (one equivalent of CaM), the “behaviour on gel permeation column, mixed with one equivalent of CaM” value is listed as “passed through”. In addition, in data set [3], the “effect on CD spectrum of gp41 core model (helicity of the hexameric bundle)” value (from here on “effect on CD spectrum of gp41 core model”) is “little effect on the protein CD spectrum even at high concentrations”.
With “Bis methyl 3-(1,1′:4′,1″-terphenyl-4,4″-yl)propanoic acid”, the “effect on CD spectrum of gp41 core model” value in data set [3] was “little effect on the protein CD spectrum even at high concentrations”.
As to `CCc1cc(-c2ccc(OCC(=O)O)cc2C(C)C)ccc1-c1cccc(Cc2ccccc2)c1` [a, (3-Benzyl-2′-ethyl-2″-isopropyl-[1,1′:4′,1″]terphenyl-4″-yloxy)-acetic acid], in data set [4] (CaM-derivatized resin), the “retention on avidin affinity resin derivatized with biotinylated CaM” value is on record as “retention of the terphenyl on the column”. Besides, in data set [4] (underivatized avidin resin), the “retention on underivatized avidin resin (control experiment)” value is reported as “no observable retention”. Besides, the IC50 in data set [1] turned out to be 800 nM. In data set [1] (relative to 20-mer peptide RS20), the “inhibitory potency, fold less than RS20” value worked out at 10 fold.
For the compound `CC(C)Cc1cc(-c2ccc(-c3ccc(CCC(=O)O)cc3CC(C)C)cc2Cc2ccccc2)ccc1OCC(=O)O` [l, 3-(3′-Benzyl-4″-(carboxymethoxy)-2,3″-diisobutyl-1,1′4″1″-terphenyl-4-yl)propanoic acid], the “binding affinity for Bcl-xL (in words)” value in data set [5] is “less binding affinity”.
Regarding `CC(C)Cc1cc(-c2ccc(-c3ccc(CCC(=O)O)cc3CC(C)C)cc2Cc2cccc3ccccc23)ccc1OCC(=O)O` [m, 3-(4-(Carboxymethoxy)-3,2″-diisobutyl-2′-naphthalen-1-ylmethyl-[1,1′:4′,1″]-terphenyl-4″-yl)propionic acid], the Kd in data set [5] (related to known affinity of 16-mer Bak/Bcl-xL complex, read-out: KD-value, binding to Bcl-xL) came to 114 nM.
On to `CCc1cc(-c2ccc(OCC(=O)O)cc2C(C)C)ccc1-c1cccc(Cc2ccccc2)c1.N` [48.NH4, Ammonium (3-benzyl-2′-ethyl-2″-isopropyl-[1,1′:4′,1″]terphenyl-4″-yloxy)-acetate], for which the solubility in buffer entry in data set [6] is listed as “surprisingly soluble in buffer with <1% DMSO”.
Consider `CC(C)Cc1cc(CCC(=O)O)ccc1-c1ccc(-c2ccc(OCC(=O)O)c(Cc3cccc4ccccc34)c2CC(C)C)cc1` [n, 3-(4-(Carboxymethoxy)-2,2″-diisobutyl-3-naphthalen-1-ylmethyl-[1,1′:4′,1″]-terphenyl-4″-yl)propionic acid], for which the “binding affinity for Bcl-xL (in words)” value in data set [5] was “significant loss in binding affinity”.
Take `CCc1cc(-c2ccc(OCC(=O)O)cc2C(C)C)ccc1-c1cccc(Cc2ccc3ccccc3c2)c1` [c, (2′-Ethyl-2″-isopropyl-3-naphthalen-2-ylmethyl-[1,1′:4′,1″]terphenyl-4″-yloxy)-acetic acid]: in data set [1], the IC50 was found to be 20 nM.
With `CC(C)Cc1cc(CCC(=O)O)ccc1-c1ccc(-c2ccc(OCC(=O)O)c(Cc3ccccc3)c2)c(Cc2ccccc2)c1` [j, 3-(3′,3″-dibenzyl-4″-(carboxymethoxy)-2-isobutyl-1,1′:4′,1″-terphenyl-4-yl)propanoic acid], the “effect on CD spectrum of gp41 core model” value in data set [3] is “modest enhancement in activity compared to f”.
Same read-out and setting: under `O=C(O)CCc1ccc(-c2ccc(OCC(=O)O)cc2)cc1` [i, 3-[4′-(carboxymethoxy)-1,1′-biphenyl-4-yl)propanoic acid] stands “little effect on the protein CD spectrum even at high concentrations”.
